Tests used:
FIV-p24 = assay: Oral secretion IgG antibody titers (ELISA) after vaccination of cats; assay type: in vivo, feline immunodeficiency virus (FIV); conditions: Week 8, lowest dilution 1:4, elution factor 4-fold
Procedure: (§1) Animals: Eleven (11) female outbred cats>24 weeks old that were free of FIV, feline leukemia virus (FeLV) and feline infectious peritonitis virus were employed. The animals were restrained for the application of test articles to mucous membranes and collection of blood and mucosal secretions. Sedation, if necessary, was induced by subcutaneous administration of ketamine hydrochloride (22 mg/kg) and acepromazine maleate (0.1 mg/kg). Euthanasia was accomplished with a lethal overdose of barbiturates. All activities were approved by the Institutional Animal Care and Use Committee and supervised by veterinary staff.
(§2) Vaccine Preparation: Fel-O-Vax FIV (Fort Dodge Animal Health, Fort Dodge, Iowa) and A(1-7) was combined in a constant volume of 2% hydroxyethyl cellulose (2% HEC). The range of concentrations of A(1-7) ranged from 0 to 10 mg/mL with a constant 0.33 mL of Fel-O-Vax FIV suspended in each mL of the gel applied for vaccination purposes. Two control animals received intramuscular Fel-O-Vax FIV at baseline, week 3 and week 5. One control animal had mucosal vaccination with Fel-O-Vax alone suspended in the 2% HEC without A(1-7) and one control animal received intramuscular Fel-O-Vax FIV with 0.3 mg/kg of A(1-7) at baseline, week 3 and week 5.
(§3) Delivery of angiotensin(1-7) and FIV vaccine to mucosal surfaces: 2% HEC, a viscous gel, was used as the vehicle for the topical delivery of angiotensin(1-7) and FIV vaccine. The topical vaccine was applied to the mucosal surface weekly for 6 consecutive weeks. 1.0 mL was applied to the muzzle for oral mucosal vaccination and 1.0 mL and 0.2 mL was instilled in the rectal and vaginal vaults, respectively for mucosal vaccination at these sites.
(§4) Measurement of Local Immune Response: The Weck-Cel Surgical Spear (Windsor Biomedical, Newton, N.H.) was used to obtain secretions. Once inserted, the sponge is allowed to remain in place for 5 minutes. The secretions were extracted by centrifugation with 300 μL of a buffer solution. The buffer solution is prepared by mixing 50 μL of 100× protease inhibitor cocktail and 250 μL of 10% Igepal (Sigma, St Louis, Mo., U.S.A.) with 4.7 ml of phosphate-buffered saline (PBS) containing 0.25% bovine serum albumin (BSA, Fraction V; Sigma). The 100× protease inhibitor cocktail contains 100 μg/mL aprotinin, 500 μg/mL leupeptin, 100 μg/mL bestatin (all Sigma), and 50 μg/mL 4-(2-Aminoethyl)-benzenesulfonyl fluoride hydrochloride (Roche Applied Sciences, U.S.A.) in phosphate buffered saline.
(§5) The local immune response in mucosal secretions was evaluated against the homologous FIV-p24 antigen (Cell Biolabs, Inc, San Diego, Calif.) or the heterologous HIV-gp120 antigen (ImmunoDiagnostics, Inc, Woburn, Mass.). […] Plates were read at 450 nm.

HIV-gp120 antigen = assay: Rectal secretion SIgA antibody titers (ELISA) after vaccination of cats; assay type: in vivo, human immunodeficiency virus (HIV); conditions: parenteral vaccination or topical application of Fel-O-Vax FIV with A(1-7)
Procedure: as §1
as §2, with “One control animal had mucosal vaccination with Fel-O-Vax alone suspended in the 2% HEC without A(1-7) and one control animal received intramuscular Fel-O-Vax FIV with 0.3 mg/kg of A(1-7) at baseline, week 3 and week 5.” left out
as §5

FIV-p24 antigen [1] = assay: as above; assay type: in vivo, feline immunodeficiency virus (FIV); conditions: for SIgA Anti-FIV-p24: rectal, lowest dilution Undilute
Procedure: as §1, §2, §3, §4
(§6) The local immune response in mucosal secretions was evaluated against the homologous FIV-p24 antigen (Cell Biolabs, Inc, San Diego, Calif.) or the heterologous HIV-gp120 antigen (ImmunoDiagnostics, Inc, Woburn, Mass.). Plates were prepared with 50 ng/mL FIV-p24 antigen or with 500 ng/mL HIV-gp120 antigen (Bachem Americans, Inc, Torrance, Calif.) incubated over night at 4° C., washed and the target sample added and incubated overnight again at 4° C. The plates were washed and the indicator goat anti-feline IgG (Accurate Chemical & Scientific Corp., Westbury, N.Y., working titer 1:10,000) or goat anti-feline IgA (Accurate Chemical & Scientific Corp., Westbury, N.Y., working titer 1:1,000) added and incubated for 24 hours at 4° C. Following a final wash, substrate solution was added. The stop solution was added after 15 minutes for the IgG reaction and after 30 minutes for the IgA reaction. Plates were read at 450 nm.

FIV-p24 antigen [2] = assay: Serum IgG antibody titers (ELISA) after vaccination of cats; assay type: in vivo, feline immunodeficiency virus (FIV); conditions: for Serum IgG anti-FIVp24 antigen Titers: lowest dilution 1:20
Procedure: as §1, §2, §3, §6

[3] = topical Fel-O-Vax FIV + 0.1 A(1-7) in 2% HEC, Week 8
[4] = topical Fel-O-Vax FIV + 0.4 A(1-7) in 2% HEC, Week 4
[5] = topical Fel-O-Vax FIV + 5.0 A(1-7) in 2% HEC, Week 4
[6] = topical Fel-O-Vax FIV + 5.0 A(1-7) in 2% HEC, Week 6
[7] = topical Fel-O-Vax FIV + 5.0 A(1-7) in 2% HEC, Week 8
[8] = topical Fel-O-Vax FIV + 7.5 A(1-7) in 2% HEC, Week 2
[9] = topical Fel-O-Vax FIV + 7.5 A(1-7) in 2% HEC, Week 4
[10] = topical Fel-O-Vax FIV + 7.5 A(1-7) in 2% HEC, Week 8
[11] = topical Fel-O-Vax FIV + 10.0 A(1-7) in 2% HEC, Week 2
[12] = topical Fel-O-Vax FIV + 10.0 A(1-7) in 2% HEC, Week 4
[13] = topical Fel-O-Vax FIV + 10.0 A(1-7) in 2% HEC, Week 6
[14] = topical Fel-O-Vax FIV + 10.0 A(1-7) in 2% HEC, Week 8

Asp-Arg-Val-Tyr-Ile-His-Pro (DRVYIHP) [A(1-7)]
High levels: SIgA anti-HIV-gp120 (rectal, Table 4) (HIV-gp120 antigen)
Negative: IgG anti-FIV-p24 (FIV-p24; topical Fel-O-Vax FIV + 0.1 A(1-7) in 2% HEC) | IgG anti-FIV-p24 (FIV-p24; topical Fel-O-Vax FIV + 0.2 A(1-7) in 2% HEC) | IgG anti-FIV-p24 (FIV-p24; topical Fel-O-Vax FIV + 0.3 A(1-7) in 2% HEC) | IgG anti-FIV-p24 (FIV-p24; topical Fel-O-Vax FIV + 10.0 A(1-7) in 2% HEC) | SIgA Anti-FIV-p24 (FIV-p24 antigen [1]; IM Fel-O-Vax FIV + 0.3 mg/kg A(1-7), Week 6) | SIgA Anti-FIV-p24 (FIV-p24 antigen [1]; topical Fel-O-Vax FIV + 0.2 A(1-7) in 2% HEC, Week 6) | SIgA Anti-FIV-p24 (FIV-p24 antigen [1]; topical Fel-O-Vax FIV + 0.2 A(1-7) in 2% HEC, Week 8) | SIgA Anti-FIV-p24 (FIV-p24 antigen [1]; topical Fel-O-Vax FIV + 0.3 A(1-7) in 2% HEC, Week 6) | SIgA Anti-FIV-p24 (FIV-p24 antigen [1]; topical Fel-O-Vax FIV + 0.3 A(1-7) in 2% HEC, Week 8) | SIgA Anti-FIV-p24 (FIV-p24 antigen [1]; [5]) | SIgA Anti-FIV-p24 (FIV-p24 antigen [1]; [6]) | SIgA Anti-FIV-p24 (FIV-p24 antigen [1]; [7]) | SIgA Anti-FIV-p24 (FIV-p24 antigen [1]; [8]) | SIgA Anti-FIV-p24 (FIV-p24 antigen [1]; [9]) | SIgA Anti-FIV-p24 (FIV-p24 antigen [1]; [10]) | SIgA Anti-FIV-p24 (FIV-p24 antigen [1]; [11]) | SIgA Anti-FIV-p24 (FIV-p24 antigen [1]; [12]) | SIgA Anti-FIV-p24 (FIV-p24 antigen [1]; [13]) | SIgA Anti-FIV-p24 (FIV-p24 antigen [1]; [14]) | Serum IgG anti-FIVp24 antigen Titers (FIV-p24 antigen [2]; topical Fel-O-Vax FIV + 0.1 A(1-7) in 2% HEC, Week 4) | Serum IgG anti-FIVp24 antigen Titers (FIV-p24 antigen [2]; [3]) | Serum IgG anti-FIVp24 antigen Titers (FIV-p24 antigen [2]; topical Fel-O-Vax FIV + 0.2 A(1-7) in 2% HEC, Week 4) | Serum IgG anti-FIVp24 antigen Titers (FIV-p24 antigen [2]; [4]) | Serum IgG anti-FIVp24 antigen Titers (FIV-p24 antigen [2]; topical Fel-O-Vax FIV + 0.4 A(1-7) in 2% HEC, Week 8) | Serum IgG anti-FIVp24 antigen Titers (FIV-p24 antigen [2]; topical Fel-O-Vax FIV + 5.0 A(1-7) in 2% HEC, Week 2) | Serum IgG anti-FIVp24 antigen Titers (FIV-p24 antigen [2]; [5]) | Serum IgG anti-FIVp24 antigen Titers (FIV-p24 antigen [2]; [6]) | Serum IgG anti-FIVp24 antigen Titers (FIV-p24 antigen [2]; [7]) | Serum IgG anti-FIVp24 antigen Titers (FIV-p24 antigen [2]; [8]) | Serum IgG anti-FIVp24 antigen Titers (FIV-p24 antigen [2]; [9]) | Serum IgG anti-FIVp24 antigen Titers (FIV-p24 antigen [2]; topical Fel-O-Vax FIV + 7.5 A(1-7) in 2% HEC, Week 6) | Serum IgG anti-FIVp24 antigen Titers (FIV-p24 antigen [2]; [10]) | Serum IgG anti-FIVp24 antigen Titers (FIV-p24 antigen [2]; [11]) | Serum IgG anti-FIVp24 antigen Titers (FIV-p24 antigen [2]; [12]) | Serum IgG anti-FIVp24 antigen Titers (FIV-p24 antigen [2]; [13]) | Serum IgG anti-FIVp24 antigen Titers (FIV-p24 antigen [2]; [14])
increased: mucosal anti-FIV antibodies in the rectum (FIV-p24 antigen [1]; injection of A(1-7) with FIV antigens)
Undilute: SIgA Anti-FIV-p24 (FIV-p24 antigen [1]; IM Fel-O-Vax FIV + 0.3 mg/kg A(1-7), Week 4) | SIgA Anti-FIV-p24 (FIV-p24 antigen [1]; IM Fel-O-Vax FIV + 0.3 mg/kg A(1-7), Week 8) | SIgA Anti-FIV-p24 (FIV-p24 antigen [1]; topical Fel-O-Vax FIV + 0.1 A(1-7) in 2% HEC, Week 2) | SIgA Anti-FIV-p24 (FIV-p24 antigen [1]; topical Fel-O-Vax FIV + 0.1 A(1-7) in 2% HEC, Week 6) | SIgA Anti-FIV-p24 (FIV-p24 antigen [1]; [3]) | SIgA Anti-FIV-p24 (FIV-p24 antigen [1]; topical Fel-O-Vax FIV + 0.2 A(1-7) in 2% HEC, Week 2) | SIgA Anti-FIV-p24 (FIV-p24 antigen [1]; topical Fel-O-Vax FIV + 0.3 A(1-7) in 2% HEC, Week 2) | SIgA Anti-FIV-p24 (FIV-p24 antigen [1]; topical Fel-O-Vax FIV + 0.3 A(1-7) in 2% HEC, Week 4) | SIgA Anti-FIV-p24 (FIV-p24 antigen [1]; [4]) | SIgA Anti-FIV-p24 (FIV-p24 antigen [1]; topical Fel-O-Vax FIV + 0.4 A(1-7) in 2% HEC, Week 6)
no discernible dose response effect: dose response effect on serum IgG antibody titers to FIVp24 antigen (FIV-p24 antigen [2]; topical vaccination, increasing dose levels of A(1-7))
Low levels: SIgA-anti-FIV-p24 (rectal, Table 4) (FIV-p24 antigen [1]; both methods of vaccination (parenteral or topical Fel-O-Vax FIV with A(1-7)))

Reference: patent US20140205631A1, “Stimulation of vaccination by angiotensin peptides” (University of Southern California, priority 2013, published 2014)
